{"source": "paper PMC3875304", "about": "(Journal of medicinal chemistry, 2009)", "key": {"M2": {"molecular_target": "T1, M2 (Homo sapiens, UniProt P08172)", "T1 sequence (P08172 1-466)": "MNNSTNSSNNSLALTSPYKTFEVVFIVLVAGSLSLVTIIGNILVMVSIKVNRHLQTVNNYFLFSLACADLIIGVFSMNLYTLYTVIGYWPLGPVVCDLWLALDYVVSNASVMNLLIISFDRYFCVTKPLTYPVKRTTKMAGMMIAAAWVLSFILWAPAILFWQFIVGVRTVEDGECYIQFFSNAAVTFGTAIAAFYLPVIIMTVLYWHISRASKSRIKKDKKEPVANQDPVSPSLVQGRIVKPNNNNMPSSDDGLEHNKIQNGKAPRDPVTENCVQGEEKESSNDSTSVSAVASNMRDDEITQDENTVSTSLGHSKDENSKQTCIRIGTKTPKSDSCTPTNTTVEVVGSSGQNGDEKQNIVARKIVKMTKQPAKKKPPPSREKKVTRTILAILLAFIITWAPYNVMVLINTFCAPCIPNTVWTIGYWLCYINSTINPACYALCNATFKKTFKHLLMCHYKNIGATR", "assay_type": "cell-based", "conditions": "fixed ACh ~EC20, Ca2+ assay, Gqi5 cotransfected, up to 30 µM"}, "M4": {"molecular_target": "T2, M4 (Homo sapiens, UniProt P08173)", "T2 sequence (P08173 1-479)": "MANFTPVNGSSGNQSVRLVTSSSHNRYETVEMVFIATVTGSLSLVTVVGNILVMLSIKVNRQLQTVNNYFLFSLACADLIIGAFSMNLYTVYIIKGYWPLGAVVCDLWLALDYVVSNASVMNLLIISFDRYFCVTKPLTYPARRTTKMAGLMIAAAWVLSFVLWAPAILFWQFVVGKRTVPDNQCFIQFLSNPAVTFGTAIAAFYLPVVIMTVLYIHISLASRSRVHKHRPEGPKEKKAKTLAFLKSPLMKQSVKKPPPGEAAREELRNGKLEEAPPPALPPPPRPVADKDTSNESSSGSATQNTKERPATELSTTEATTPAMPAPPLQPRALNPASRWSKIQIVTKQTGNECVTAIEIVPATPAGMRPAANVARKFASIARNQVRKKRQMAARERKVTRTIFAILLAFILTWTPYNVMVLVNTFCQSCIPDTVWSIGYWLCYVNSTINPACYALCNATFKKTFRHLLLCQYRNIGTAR", "assay_type": "cell-based", "conditions": "for M4 potentiator activity: fixed ACh ~EC20, Ca2+ assay, Gqi5 cotransfected, up to 30 µM"}, "M1 [1]": {"molecular_target": "T3, M1 (Homo sapiens, UniProt P11229)", "T3 sequence (P11229 1-460)": "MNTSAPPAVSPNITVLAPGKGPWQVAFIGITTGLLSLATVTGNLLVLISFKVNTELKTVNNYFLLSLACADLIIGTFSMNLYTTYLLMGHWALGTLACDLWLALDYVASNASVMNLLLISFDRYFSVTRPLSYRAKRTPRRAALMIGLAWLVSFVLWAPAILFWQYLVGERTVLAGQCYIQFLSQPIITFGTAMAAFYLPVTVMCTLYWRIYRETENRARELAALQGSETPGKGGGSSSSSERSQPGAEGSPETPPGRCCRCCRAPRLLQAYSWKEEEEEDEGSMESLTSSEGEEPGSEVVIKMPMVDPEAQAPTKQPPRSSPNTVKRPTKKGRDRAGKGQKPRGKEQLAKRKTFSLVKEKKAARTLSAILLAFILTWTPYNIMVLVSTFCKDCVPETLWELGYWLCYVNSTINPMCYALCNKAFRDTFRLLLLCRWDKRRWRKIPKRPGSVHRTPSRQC", "experiment": "Ca2+ mobilization potentiation of ACh ~EC20, M1 CHO cells", "assay_type": "cell-based"}, "M5 [2]": {"molecular_target": "T4, M5 (Homo sapiens, UniProt P08912)", "T4 sequence (P08912 1-532)": "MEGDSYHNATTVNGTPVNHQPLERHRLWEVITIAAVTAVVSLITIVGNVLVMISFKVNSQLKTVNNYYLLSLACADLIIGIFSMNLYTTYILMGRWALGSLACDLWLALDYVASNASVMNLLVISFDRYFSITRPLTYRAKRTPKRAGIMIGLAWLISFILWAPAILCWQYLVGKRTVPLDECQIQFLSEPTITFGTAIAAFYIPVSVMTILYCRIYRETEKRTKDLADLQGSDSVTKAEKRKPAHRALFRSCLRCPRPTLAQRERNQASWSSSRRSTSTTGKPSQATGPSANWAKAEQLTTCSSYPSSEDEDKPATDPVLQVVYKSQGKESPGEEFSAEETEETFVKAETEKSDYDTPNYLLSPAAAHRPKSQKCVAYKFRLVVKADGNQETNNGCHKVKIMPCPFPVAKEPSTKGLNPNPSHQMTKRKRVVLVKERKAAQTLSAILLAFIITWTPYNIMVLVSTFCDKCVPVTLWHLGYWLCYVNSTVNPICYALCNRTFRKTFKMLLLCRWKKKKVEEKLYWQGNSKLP", "experiment": "Ca2+ mobilization assay, M5 CHO cells", "assay_type": "cell-based"}, "M5 [3]": {"molecular_target": "T4, M5", "experiment": "[3H]-NMS competition binding, M5-CHO membrane preparations", "conditions": "up to 30 µM, M5-CHO membranes"}, "M1 [4]": {"molecular_target": "T3, M1", "conditions": "fixed 30 µM compound, at M1; cited from earlier work"}}, "note": "“Also recorded” adds a separate entry of the source. Like-named read-outs stand apart in the source and are kept apart here."}
{"molecule": "O=C1C(=O)N(Cc2ccc(C(F)(F)F)cc2)c2c(Cl)cccc21", "note": "[compound 56]", "values": [{"measurement": "M2 potentiator activity", "setting": "M2", "result": "modest potentiation"}, {"measurement": "EC50", "setting": "M4", "result": "> 10", "unit": "µM"}, {"measurement": "M4 potentiator activity", "setting": "M4", "result": "modest potentiation"}]}
{"molecule": "COc1ccc(CN2C(=O)C(=O)c3cc(OC(F)(F)F)ccc32)cc1", "note": "[compound 42]", "values": [{"measurement": "EC50", "setting": "M1 [1]", "result": "> 30", "unit": "µM"}, {"measurement": "intrinsic agonist activity at M5", "setting": "M5 [2]; compound alone, absence of ACh, up to 30 µM, Ca2+ assay", "result": "absence of intrinsic agonist activity; also recorded: lacked intrinsic agonist activity"}, {"measurement": "selectivity for M5 versus M1 and M3", "setting": "M5 [2]; from EC50 in Ca2+ assays", "result": "> 30", "unit": "fold"}, {"measurement": "selectivity for M5 versus the other four subtypes", "setting": "M5 [2]; from EC50 in Ca2+ assays", "result": "> 30", "unit": "×"}, {"measurement": "M2 potentiator activity", "setting": "M2", "result": "lack of potentiation activity; also recorded: inactive"}, {"measurement": "M2 potentiator activity", "setting": "M2; listed as VU0238429", "result": "no M2 or M4 potentiator activity"}, {"measurement": "competition with [3H]-NMS binding to M5", "setting": "M5 [3]", "result": "lack of competition; also recorded: lacked competition"}, {"measurement": "M4 potentiator activity", "setting": "M4", "result": "lack of potentiation activity; also recorded: inactive"}, {"measurement": "M4 potentiator activity", "setting": "M4; listed as VU0238429", "result": "no M2 or M4 potentiator activity"}]}
{"molecule": "O=C1C(=O)N(Cc2ccc(Br)cc2F)c2ccc(OC(F)(F)F)cc21", "note": "[compound 112]", "values": [{"measurement": "EC50", "setting": "M1 [1]", "result": "> 30", "unit": "µM"}]}
{"molecule": "Cc1ccccc1CN1C(=O)C(=O)c2cc(OC(F)(F)F)ccc21", "note": "[compound 111]", "values": [{"measurement": "EC50", "setting": "M1 [1]", "result": "> 30", "unit": "µM"}]}
{"molecule": "O=C1C(=O)N(Cc2ccccc2C(F)(F)F)c2c(F)cccc21", "note": "[compound 49]", "values": [{"measurement": "EC50", "setting": "M1 [1]", "result": "> 30", "unit": "µM"}]}
{"molecule": "O=C1C(=O)N(Cc2ccc(Br)cc2)c2ccccc21", "note": "[compound 113]", "values": [{"measurement": "leftward shift of full ACh CRC", "setting": "M1 [4]", "result": 14, "unit": "fold"}, {"measurement": "M2 potentiator activity", "setting": "M2", "result": "lacked potentiator effects; also recorded: inactive"}, {"measurement": "M4 potentiator activity", "setting": "M4", "result": "lacked potentiator effects; also recorded: inactive"}]}
{"molecule": "O=C1C(=O)N(Cc2ccccc2Cl)c2ccc(OC(F)(F)F)cc21", "note": "[compound 64]", "values": [{"measurement": "EC50", "setting": "M1 [1]", "result": "> 30", "unit": "µM"}]}
{"molecule": "O=C1C(=O)N(Cc2ccc(OC(F)(F)F)cc2)c2ccc(OC(F)(F)F)cc21", "note": "[compound 110]", "values": [{"measurement": "EC50", "setting": "M1 [1]", "result": "> 30", "unit": "µM"}]}
{"molecule": "COc1ccc(CN2C(=O)C(=O)c3ccccc32)cc1", "note": "[compound 22]", "values": [{"measurement": "EC50", "setting": "M1 [1]", "result": "> 10", "unit": "µM"}]}
{"molecule": "COc1cccc(CN2C(=O)C(=O)c3cc(OC(F)(F)F)ccc32)c1", "note": "[compound 41]", "values": [{"measurement": "EC50", "setting": "M1 [1]", "result": "> 30", "unit": "µM"}]}
{"molecule": "COc1cccc(CN2C(=O)C(=O)c3c(Cl)ccc(Cl)c32)c1", "note": "[compound 38]", "values": [{"measurement": "EC50", "setting": "M1 [1]", "result": "> 30", "unit": "µM"}]}
